Consider nine molecules from patent US9670247B2, “Contraceptive agents” (The University of Kansas, priority 2012, dated 2017).

Each structure is given as a SMILES string.

The first data set deals with hERG (Homo sapiens, UniProt Q12809).
Chain of hERG (Q12809 whole entry): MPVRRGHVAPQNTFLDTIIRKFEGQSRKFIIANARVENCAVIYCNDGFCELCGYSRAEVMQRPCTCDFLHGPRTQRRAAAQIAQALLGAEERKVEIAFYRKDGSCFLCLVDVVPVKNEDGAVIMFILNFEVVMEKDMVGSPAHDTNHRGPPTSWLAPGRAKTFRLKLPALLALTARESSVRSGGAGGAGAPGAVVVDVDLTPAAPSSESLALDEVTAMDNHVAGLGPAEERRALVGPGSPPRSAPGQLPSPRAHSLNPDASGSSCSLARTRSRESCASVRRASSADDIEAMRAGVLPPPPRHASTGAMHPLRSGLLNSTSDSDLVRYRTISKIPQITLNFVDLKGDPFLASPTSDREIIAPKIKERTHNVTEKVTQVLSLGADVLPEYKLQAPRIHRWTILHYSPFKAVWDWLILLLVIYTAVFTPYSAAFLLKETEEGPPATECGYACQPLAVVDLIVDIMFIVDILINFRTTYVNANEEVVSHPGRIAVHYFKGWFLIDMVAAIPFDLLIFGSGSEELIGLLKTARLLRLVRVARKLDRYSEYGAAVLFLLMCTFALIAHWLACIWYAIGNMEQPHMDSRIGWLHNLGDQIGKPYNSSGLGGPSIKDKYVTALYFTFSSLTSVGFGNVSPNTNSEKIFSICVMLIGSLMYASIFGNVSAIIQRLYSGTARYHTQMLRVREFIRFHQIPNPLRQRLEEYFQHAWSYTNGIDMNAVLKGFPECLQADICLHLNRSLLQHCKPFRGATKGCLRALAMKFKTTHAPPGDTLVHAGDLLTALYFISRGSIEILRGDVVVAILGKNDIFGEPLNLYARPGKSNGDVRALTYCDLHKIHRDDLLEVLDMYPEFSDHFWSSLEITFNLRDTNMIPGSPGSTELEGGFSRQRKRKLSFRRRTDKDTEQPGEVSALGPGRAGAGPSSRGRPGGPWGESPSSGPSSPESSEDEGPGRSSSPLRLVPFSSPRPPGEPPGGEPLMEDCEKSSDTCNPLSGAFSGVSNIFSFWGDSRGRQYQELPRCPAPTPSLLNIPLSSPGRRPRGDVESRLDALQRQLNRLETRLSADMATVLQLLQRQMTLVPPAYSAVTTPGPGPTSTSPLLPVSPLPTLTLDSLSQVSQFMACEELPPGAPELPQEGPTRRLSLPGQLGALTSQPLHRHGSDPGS
Settings: not given
`C[C@@H]1O[C@@H](O[C@H]2C[C@@H](O)[C@]3(CO)[C@H]4[C@H](O)C[C@]5(C)[C@@H](C6=CC(=O)OC6)CC[C@]5(O)[C@@H]4CC[C@]3(O)C2)[C@H](O)[C@H](O)[C@H]1O` [ouabain]: the “effect on hERG” value is “inhibited hERG activity”.

A further data set relates to Na,K-ATPase α4 isoform. The conditions noted are these: higher than that of the ubiquitous α1 isoform; cited from earlier work.
For `C[C@@H]1O[C@@H](O[C@H]2C[C@@H](O)[C@]3(CO)[C@H]4[C@H](O)C[C@]5(C)[C@@H](C6=CC(=O)OC6)CC[C@]5(O)[C@@H]4CC[C@]3(O)C2)[C@H](O)[C@H](O)[C@H]1O` [ouabain], the “affinity for ouabain of α4 relative to the α1 isoform” value is reported as 10,000 fold.

System in a further data set: not given
Settings: not given
The melting point is the temperature, or range, at which the solid turns liquid. On to `COCO[C@H]1C[C@H]2OC(C)(C)OC[C@]23C2C(CC[C@]3(O)C1)[C@@]1(OCOC)CC[C@H](C=O)[C@@]1(C)C[C@H]2OCOC` (stereo partly shown), for which the melting point lay within 129 to 135 °C.

The molecule `COC(=O)Cn1cc([C@H]2CCC3C4CC=C5C[C@@H](O)CC[C@]5(C)C4CC[C@@]32C)nn1` (stereo partly shown) displayed a melting point of 221 to 223 °C.

Molecule `CC(C)[C@H](N)C(=O)O[C@H]1CC[C@@]2(C)C(=CCC3C2CC[C@@]2(C)C3CC[C@@H]2c2cn(Cc3ccccc3)nn2)C1` (stereo partly shown) had a melting point of 195 to 197 °C.

Regarding `C[C@]12CCC3C(CC=C4C[C@@H](O)CC[C@@]43C)[C@@H]1CC[C@@H]2C1=CC(=O)OC1` (stereo in doubt), the melting point was 286 to 287 °C.

On to `COCO[C@@H]1[C@H]2OC(C)(C)O[C@H]2[C@H](O[C@H]2C[C@H]3OC(C)(C)OC[C@]34C3C(CC[C@]4(O)C2)[C@@]2(O)CC[C@H](C(O)CO)[C@@]2(C)C[C@H]3OCOC)O[C@H]1C` (stereo partly drawn) [Compound 3, (3S,3aR,5R,5bR,9aR,11S,12aS,14bS)-3-(1,2-dihydroxyethyl)-5-(methoxymethoxy)-11-(((3aR,4R,6S,7S,7aR)-7-(methoxymethoxy)-2,2,6-trimethyltetrahydro-3aH-[1,3]dioxolo[4,5-c]pyran-4-yl)oxy)-3a,8,8-trimethylhexadecahydro-1H-cyclopenta[7,8]phenanthro[4,4a-d][1,3]dioxine-12a,14b-diol], for which the melting point was in the range of 119 to 121 °C.

`COCO[C@@H]1[C@H]2OC(C)(C)O[C@H]2[C@H](O[C@H]2C[C@H]3OC(C)(C)OC[C@]34C3C(CC[C@]4(O)C2)[C@@]2(O)CC[C@H](CO)[C@@]2(C)C[C@H]3OCOC)O[C@H]1C` (stereo partly drawn) [Compound 10, (3S,3aR,5R,5bR,9aR,11S,12aS,14bS)-3-(hydroxymethyl)-5-(methoxymethoxy)-11-(((3aR,4R,6S,7S,7aR)-7-(methoxymethoxy)-2,2,6-trimethyltetrahydro-3aH-[1,3]dioxolo[4,5-c]pyran-4-yl)oxy)-3a,8,8-trimethylhexadecahydro-1H-cyclopenta[7,8]phenanthro[4,4a-d][1,3]dioxine-12a,14b-diol] displayed a melting point of 126 to 129 °C.

For `COCO[C@@H]1[C@H]2OC(C)(C)O[C@H]2[C@H](O[C@H]2C[C@H]3OC(C)(C)OC[C@]34C3C(CC[C@]4(O)C2)[C@@]2(O)CC[C@H](C#N)[C@@]2(C)C[C@H]3OCOC)O[C@H]1C` (stereo partly drawn) [Compound 11, (3S,3aR,5R,5bR,9aR,11S,12aS,14bS)-12a,14b-dihydroxy-5-(methoxymethoxy)-11-(((3aR,4R,6S,7S,7aR)-7-(methoxymethoxy)-2,2,6-trimethyltetrahydro-3aH-[1,3]dioxolo[4,5-c]pyran-4-yl)oxy)-3a,8,8-trimethylhexadecahydro-1H-cyclopenta[7,8]phenanthro[4,4a-d][1,3]dioxine-3-carbonitrile], the melting point was 97 to 99 °C.

As to `COCO[C@H]1C[C@H]2OC(C)(C)OC[C@]23C2C(CC[C@]3(O)C1)[C@@]1(OCOC)CC[C@H](CO)[C@@]1(C)C[C@H]2OCOC` (stereo partly drawn) [Compound 22, (3S,3aR,5R,5bR,9aR,11S,12aS,14bS)-3-(hydroxymethyl)-5,11,14b-tris(methoxymethoxy)-3a,8,8-trimethylhexadecahydro-1H-cyclopenta[7,8]phenanthro[4,4a-d][1,3]dioxin-12a-ol], the melting point lay within 154 to 158 °C.
